From paper PMC5458078, “Global mapping of CARM1 substrates defines enzyme specificity and substrate recognition” (Nature Communications, 2017)
Where two headings read alike, the source gives them in different places.

Experiments:
MCF7 cells = experiment: Quantitative nanoLC-MS/MS (TMT) of ADMA-containing peptides, CARM1 KO vs parental; type: cell-based, human; design: Fold change KO/WT: scale not given here
MCF7 CARM1 KO cells = experiment: Quantitative MS of ADMA-containing peptides in MCF7 CARM1 KO cells expressing CARM1 28-608 or CARM1 140-608, and in CARM1 KO; type: cell-based, human
[1] = ADMA-containing peptide, CARM1 knockout (KO) vs wild type (WT) MCF7 cells, 6-plex TMT experiment #1, three biological replicates each, sheet "MCF7"
[2] = CARM1 140-608 versus WT, mean of three replicates (log2)
[3] = KO versus WT, mean of three replicates (log2)
[4] = difference of log2 means, CARM1 140-608 vs WT
[5] = difference of log2 means, KO vs WT
[6] = MCF7, CARM1 knockout vs wild type, n = 3 each
[7] = ratio on log2 scale, mean of 3 replicates
[8] = mean, CARM1 140-608 versus WT (log2 scale)
[9] = mean, CARM1 KO versus WT (log2 scale)
[10] = MCF7, CARM1 KO vs WT, three biological replicates each
[11] = ADMA-containing peptide, MCF7, CARM1 knockout (KO1-3) vs wild type (WT1-3), TMT 6-plex experiment #1
[12] = log2 scale ratio, mean of n = 3
[13] = CARM1 KO vs wild type MCF7 cells, 3 biological replicates each
[14] = CARM1 140-608 versus WT, difference of mean log2 values
[15] = CARM1 KO versus WT, difference of mean log2 values
[16] = MCF7 CARM1 knockout vs wild type, 3 biological replicates each, values are on log2 scale
[17] = MCF7, CARM1 KO (KO1-KO3) vs wild type (WT1-WT3)
[18] = CARM1 140-608 vs WT, mean of 3 replicates (log2 scale)
[19] = KO vs WT, mean of 3 replicates (log2 scale)

QMAVPSFTQQILCPKPVHVrPPMPPrYPAPYGER
Fold change KO/WT (MCF7 cells; [1]): -2.943
CARM1 140-608/WT (MCF7 CARM1 KO cells; [2]): 0.05331
KO/WT (MCF7 CARM1 KO cells; [3]): -2.9202

FFEAAAGSGSSAGAGDGAGPQrLPEPGGRPR
Fold change KO/WT (MCF7 cells; [1]): -1.059
CARM1 140-608/WT (MCF7 CARM1 KO cells; [4]): -1.027
KO/WT (MCF7 CARM1 KO cells; [5]): -1.059

FGGPVHHQAQrFR
Fold change KO/WT (MCF7 cells; [6]): -0.6051
CARM1 140-608/WT (MCF7 CARM1 KO cells; [7]): -0.8111
KO/WT (MCF7 CARM1 KO cells; [7]): -0.6051

SGFAATSQPGPrLPFIQHSQNPR
Fold change KO/WT (MCF7 cells; [6]): -1.049
CARM1 140-608/WT (MCF7 CARM1 KO cells; [8]): -0.196
KO/WT (MCF7 CARM1 KO cells; [9]): -1.374

FArVPLALHPVVGQPFLK
Fold change KO/WT (MCF7 cells; [10]): -2.764
CARM1 140-608/WT (MCF7 CARM1 KO cells; [7]): -2.105
KO/WT (MCF7 CARM1 KO cells; [7]): -2.764

NHPrVYQNR
Fold change KO/WT (MCF7 cells; [11]): 0.9632
CARM1 140-608/WT (MCF7 CARM1 KO cells; [12]): -0.04969
KO/WT (MCF7 CARM1 KO cells; [12]): 0.9632

SGSNWGrGSNMNSGPPR
Fold change KO/WT (MCF7 cells; [13]): 0.3426
CARM1 140-608/WT (MCF7 CARM1 KO cells; [14]): 0.2533
KO/WT (MCF7 CARM1 KO cells; [15]): 0.9633

LLALSGPGGGrGrGSLLLR
Fold change KO/WT (MCF7 cells; [1]): 0.2339
CARM1 140-608/WT (MCF7 CARM1 KO cells; [2]): -0.3383
KO/WT (MCF7 CARM1 KO cells; [3]): -0.09674

ISSSSFSrVGSSNFR
Fold change KO/WT (MCF7 cells; [16]): -3.151
CARM1 140-608/WT (MCF7 CARM1 KO cells): -2.763
KO/WT (MCF7 CARM1 KO cells): -3.151

GGrGrGSLNHMVVDHRPK
Fold change KO/WT (MCF7 cells; [17]): 0.3337
CARM1 140-608/WT (MCF7 CARM1 KO cells; [18]): 0.3773
KO/WT (MCF7 CARM1 KO cells; [19]): 0.3337

FrHNIAYFPQIVSVAAR
Fold change KO/WT (MCF7 cells; [16]): -0.6457
CARM1 140-608/WT (MCF7 CARM1 KO cells; [8]): -0.3364
KO/WT (MCF7 CARM1 KO cells; [9]): -0.6457

GQPVGGLrFEGPHGQPVGGLrFDNPR
Fold change KO/WT (MCF7 cells; [1]): -1.132
CARM1 140-608/WT (MCF7 CARM1 KO cells; [2]): 0.02925
KO/WT (MCF7 CARM1 KO cells; [3]): -0.8726

QLQLQQQrMQLAQK
Fold change KO/WT (MCF7 cells; [16]): -4.395
CARM1 140-608/WT (MCF7 CARM1 KO cells): -2.654
KO/WT (MCF7 CARM1 KO cells): -4.55

VrPVLNLPGPGPALPR
Fold change KO/WT (MCF7 cells; [1]): -2.268
CARM1 140-608/WT (MCF7 CARM1 KO cells; [2]): -1.7334
KO/WT (MCF7 CARM1 KO cells; [3]): -4.296

TPGQINLAQLrLQHMQQQVYAQK
Fold change KO/WT (MCF7 cells; [11]): -4.121
CARM1 140-608/WT (MCF7 CARM1 KO cells; [14]): -3.552
KO/WT (MCF7 CARM1 KO cells; [15]): -5.003

QLrMQLQQrLQGQQFLNQSR
Fold change KO/WT (MCF7 cells; [1]): -2.764
CARM1 140-608/WT (MCF7 CARM1 KO cells; [2]): -0.1108
KO/WT (MCF7 CARM1 KO cells; [3]): -1.926

KVPQPCSSATLNrLTVPrYSIPTGDPPPYPEIASQLAQGR
Fold change KO/WT (MCF7 cells; [13]): -4.368
CARM1 140-608/WT (MCF7 CARM1 KO cells; [14]): -2.332
KO/WT (MCF7 CARM1 KO cells; [15]): -4.368

LQNAFWEHGASrAMLPGSPLFTrAPPPK
Fold change KO/WT (MCF7 cells; [17]): -2.217
CARM1 140-608/WT (MCF7 CARM1 KO cells; [2]): -1.727
KO/WT (MCF7 CARM1 KO cells; [3]): -2.217

NSCPGPLDSSAFLSSDFLLPEDPKPrLPPPPVPPPLLHYPPPAK
Fold change KO/WT (MCF7 cells; [1]): -3.136
CARM1 140-608/WT (MCF7 CARM1 KO cells; [4]): -1.41
KO/WT (MCF7 CARM1 KO cells; [5]): -3.136

RPPTPGPDTSVSGPrLTLALAPGPPPPPSR
Fold change KO/WT (MCF7 cells; [1]): -1.877
CARM1 140-608/WT (MCF7 CARM1 KO cells; [4]): -1.4
KO/WT (MCF7 CARM1 KO cells; [5]): -1.877

KPLPLGVrAPLAGPSAAAR
Fold change KO/WT (MCF7 cells; [17]): -2.562
CARM1 140-608/WT (MCF7 CARM1 KO cells; [18]): -2.373
KO/WT (MCF7 CARM1 KO cells; [19]): -2.562

SGSGNFGGGrGGGFGGNDNFGrGGNFSGrGGFGGSR
Fold change KO/WT (MCF7 cells; [6]): 0.2137
CARM1 140-608/WT (MCF7 CARM1 KO cells; [8]): 0.1031
KO/WT (MCF7 CARM1 KO cells; [9]): 0.7867

APVFPGrGSYSNrGNYNR
Fold change KO/WT (MCF7 cells; [16]): 0.06661
CARM1 140-608/WT (MCF7 CARM1 KO cells; [8]): 0.3143
KO/WT (MCF7 CARM1 KO cells; [9]): -0.1859

SYGLGSEQrSQAPArYSLQSANASSLSSGQLK
Fold change KO/WT (MCF7 cells; [10]): -5.372
CARM1 140-608/WT (MCF7 CARM1 KO cells; CARM1 140-608 vs WT, mean of 3 replicates, log2): -3.897
KO/WT (MCF7 CARM1 KO cells; KO vs WT, mean of 3 replicates, log2): -5.372

ATSPrPrAFDGAGSSLGrAPSPrPGPGPLrQQGPPTPFDFLGR
Fold change KO/WT (MCF7 cells; [17]): -2.635
CARM1 140-608/WT (MCF7 CARM1 KO cells; [2]): -2.092
KO/WT (MCF7 CARM1 KO cells; [3]): -2.635

LGrLLGIFEQNQDRKHR
Fold change KO/WT (MCF7 cells; [1]): -0.4775
CARM1 140-608/WT (MCF7 CARM1 KO cells; [2]): -0.3444
KO/WT (MCF7 CARM1 KO cells; [3]): -0.4775

AYGQQYWGQPGNrGGYRNFYDR
Fold change KO/WT (MCF7 cells; [16]): 0.6249
CARM1 140-608/WT (MCF7 CARM1 KO cells; [8]): -0.3814
KO/WT (MCF7 CARM1 KO cells; [9]): 1.342

GrGTLTrGAFVGATAAPGYIAPGYGTPYGYSTAAPAYGLPK
Fold change KO/WT (MCF7 cells; [11]): 0.06714
CARM1 140-608/WT (MCF7 CARM1 KO cells; [12]): -0.05087
KO/WT (MCF7 CARM1 KO cells; [12]): 0.2558

LITFQLrHILK
Fold change KO/WT (MCF7 cells; [11]): -5.219
CARM1 140-608/WT (MCF7 CARM1 KO cells; [14]): -4.254
KO/WT (MCF7 CARM1 KO cells; [15]): -5.219

MAPALSGANLTSPrVPLSAYER
Fold change KO/WT (MCF7 cells; [11]): -4.135
CARM1 140-608/WT (MCF7 CARM1 KO cells; [12]): -3.667
KO/WT (MCF7 CARM1 KO cells; [12]): -5.009

GRPSSPrTPLYLQPDAYGSLDR
Fold change KO/WT (MCF7 cells; [17]): -1.386
CARM1 140-608/WT (MCF7 CARM1 KO cells; [2]): -1.266
KO/WT (MCF7 CARM1 KO cells; [3]): -1.386

VFrYSTSLEK
Fold change KO/WT (MCF7 cells; [17]): 0.0856
CARM1 140-608/WT (MCF7 CARM1 KO cells; [18]): 0.01169
KO/WT (MCF7 CARM1 KO cells; [19]): 0.0856

YCLTAPNYrLK
Fold change KO/WT (MCF7 cells; [11]): -0.9585
CARM1 140-608/WT (MCF7 CARM1 KO cells; [12]): -1.503
KO/WT (MCF7 CARM1 KO cells; [12]): -1.727

LFHLPEYTWrLPCGGVR
Fold change KO/WT (MCF7 cells; [11]): -2.1298
CARM1 140-608/WT (MCF7 CARM1 KO cells; [12]): 0.09104
KO/WT (MCF7 CARM1 KO cells; [12]): -2.175
